Measured values reported in patent US12546776B2, “Modulation of protein degradation” (Orionis Biosciences, Inc., priority 2019, dated 2026).

Key:
CRBN-ASS1 interaction [1] = target: T1, CRBN-ASS1 interaction (Homo sapiens, UniProt Q96SW2); experiment: Co-immunoprecipitation of Flag-ASS1 and HA-CRBN in HEK293T cells; assay type: cell-based; details: 1 μM and 3 μM, 24 hours
T1 construct: expressed in transfected cells; host or cells: HEK293T
Description: FIGS. 3A-B Ligand-induced CRBN-ASS1 interaction in living cells—as assessed by co-immunoprecipitation analysis. In this study we examined the ability of Flag-tagged ASS1 (or Flag tagged gp130-ASS1 fusion protein, as identified in the assay described in FIG. 1) and HA-tagged CRBN to interact in living cells upon transfection and expression of each construct in HEK293T cells—in the presence or absence of the CRBN IMiD ligand CC220. Ability of HA-tagged CRBN to interact in response to CC220 with the known CRBN neosubstrate IKZF3 was also examined (with IKZF3 expressed as a Flag-tagged IKZF3 fusion protein). […] Western analysis was performed with an anti-HA antibody to determine extent of immunoprecipitated CRBN in each sample (expected to vary in dependence of CC220 exposure) and an anti-Flag antibody to determine extent of immunoprecipitated Flag-ASS1, Flag-gp130-ASS1 or Flag-IKZF3 in each sample (which would be expected to be the same). […]
In this study we assessed via co-immunoprecipitation of protein complexes the ability of the CRBN ligand CC220 to induce an interaction with ASS1 when expressed in HEK293 cells. […] FLAG-tagged ASS1 was detected using an anti-FLAG Ab (SIGMA) respectively (FIG. 3A, lower panel). […]

CRBN = target: T2, CRBN (Homo sapiens, UniProt Q96SW2); experiment: MAPPIT-like ligand competition assay for CRBN binding in HEK293T cells (trimethoprim-lenalidomide hybrid ligand, luciferase reporter); assay type: cell-based; details: competition for binding to CRBN
T2 construct: expressed in transfected cells; host or cells: HEK293T

ASS1 = ASS1 (Homo sapiens, UniProt P00966+Q96SW2); experiment: ASS1 degradation by Western blot in HEK293T cells co-transfected with FLAG-ASS1 and HA-CRBN; assay type: cell-based; details: 0.3-30 μM, 24 hours
Protocol: FIG. 4 Ligand-induced recruitment of ASS1 to CRBN is associated with degradation of ASS1 in living cells. In this study we examined whether ligand-induced recruitment of ASS1 to CRBN could lead to subsequent ASS1 degradation (as triggered by interaction with the CRBN E3 ligase). HEK293 cells were co-transfected with cDNA constructs encoding Flag-tagged ASS1 and HA-tagged CRBN and exposed to increasing concentration of CC220 for 24 hours. Samples were generated for Western blot analysis to determine steady state levels of ASS1 across the different experimental conditions, assessed using and anti-Flag antibody. As shown, loss of ASS1 expression (but not actin control protein expression) was observed specifically in response to CC220 exposure, and in a dose-dependent manner.
In this study we examined whether CC220 CRBN-ligand-induced recruitment of ASS1 to CRBN could lead to subsequent ASS1 degradation (as triggered by interaction with the CRBN E3 ligase). For this analysis, cells were transfected with FLAG-tagged ASS1 and HA-tagged CRBN encoding constructs, and any change in steady state levels of ASS1 in response to incubation of cells with CC220 for a specified time was assessed by Western blot analysis. […] Next, cells were lysed and a fraction of the lysate was analyzed via SDS-PAGE and Western Blot analysis with an anti-FLAG antibody (Sigma). […]

CRBN-ASS1 interaction [2] = target: T1, CRBN-ASS1 interaction; experiment: MAPPIT cell microarray screen of ORF library for ligand-induced CRBN neosubstrates; assay type: cell-based; details: HEK293T cells, CC-220 at 10 μM, fluorescence reporter read 48 hours later
[3] = patients with AL amyloidosis during lenalidomide treatment; cited from earlier work

| SMILES | recruitment of ASS1 into CRBN complex by co-immunoprecipitation (in words) (CRBN-ASS1 interaction [1]) | inhibition of hybrid-ligand induced luciferase reporter activation (in words) (CRBN) | ASS1 steady state levels (Western blot, in words) (ASS1) | ligand-induced ASS1 interaction with CRBN in cell microarray screen (in words) (CRBN-ASS1 interaction [2]) | patients showing worsening of kidney function [3] [%] | patients with severe kidney dysfunction [3] [%] |
| --- | --- | --- | --- | --- | --- | --- |
| O=C1CC[C@H](N2Cc3c(OCc4ccc(CN5CCOCC5)cc4)cccc3C2=O)C(=O)N1 [CC-220] | specifically induces the recruitment of ASS1 into a CRBN-CC220 complex | specifically inhibit hybrid-ligand induced luciferase reporter activation in a dose dependent manner | decrease in a dose responsive manner | identified Argininosuccinate Synthase 1 (ASS1) as a novel CC220-induced CRBN neosubstrate | – | – |
| Nc1cccc2c1CN(C1CCC(=O)NC1=O)C2=O (stereo not drawn) [LEN, lenalidomide] | – | – | – | – | 66 | 32 |
